# From patent US7655632B2, “Pyrazole derivative, medicinal composition containing the same, medicinal use thereof, and intermediate for production thereof” (Kissei Pharmaceutical Co., Ltd., priority 2002, dated 2010)
# Legend:
# diabetic rats = assay: Assay for inhibitory effects on blood glucose level increase in rats (liquid meal tolerance test in diabetic rat model); assay type: in vivo; details: test compound 1 mg/kg orally, liquid meal 17.25 kcal/kg, mean ± S.E.
# Method: Assay for Inhibitory Effects on Blood Glucose Level Increase in rats
# 1) Preparation of Diabetic Rat Model
# Male wistar rats (Japan Charles River), aged 8 weeks old, were injected nicotinamide (230 mg/kg) intraperitoneally. Fifteen minutes after injection, they were injected streptozotocin (85 mg/kg) intravenously from tail vain under anesthesia with ether. After a week, rats were fasted overnight and then glucose tolerance test (2 g/kg) was done.
# 2) Liquid Meal Tolerance Test
# After overnight fasted, the diabetic rats were orally administered a test compound (1 mg/kg), which was dissolved in distilled water, in the drug-treating group, or distilled water alone in a control group. Immediately after the compound administration, 17.25 kcal/kg of liquid meal (No. 038, Control diet, assorted with dextrin and maltose; Oriental Yeast Co., Ltd.) was loaded orally. The blood was collected from tail artery immediately before and after administration with the time course, and treated with heparin immediately. The blood was centrifuged, and the plasma was collected to quantify the plasma glucose concentration by glucose oxidase method. The values in the table are presented as the mean ±S.E.
# human SGLT1 = target: T1, human SGLT1 (Homo sapiens, UniProt P13866); assay: Assay for inhibitory effects on human SGLT1 activity (uptake of methyl-α-D-glucopyranoside in CS1-5-11D cells); assay type: cell-based; details: CHO-K1 cells stably expressing human SGLT1 (CS1-5-11D); 1 mM α-MG uptake, 37° C., 1 hour
# T1 construct: expressed in transfected cells
# T1 sequence (P13866 1-664): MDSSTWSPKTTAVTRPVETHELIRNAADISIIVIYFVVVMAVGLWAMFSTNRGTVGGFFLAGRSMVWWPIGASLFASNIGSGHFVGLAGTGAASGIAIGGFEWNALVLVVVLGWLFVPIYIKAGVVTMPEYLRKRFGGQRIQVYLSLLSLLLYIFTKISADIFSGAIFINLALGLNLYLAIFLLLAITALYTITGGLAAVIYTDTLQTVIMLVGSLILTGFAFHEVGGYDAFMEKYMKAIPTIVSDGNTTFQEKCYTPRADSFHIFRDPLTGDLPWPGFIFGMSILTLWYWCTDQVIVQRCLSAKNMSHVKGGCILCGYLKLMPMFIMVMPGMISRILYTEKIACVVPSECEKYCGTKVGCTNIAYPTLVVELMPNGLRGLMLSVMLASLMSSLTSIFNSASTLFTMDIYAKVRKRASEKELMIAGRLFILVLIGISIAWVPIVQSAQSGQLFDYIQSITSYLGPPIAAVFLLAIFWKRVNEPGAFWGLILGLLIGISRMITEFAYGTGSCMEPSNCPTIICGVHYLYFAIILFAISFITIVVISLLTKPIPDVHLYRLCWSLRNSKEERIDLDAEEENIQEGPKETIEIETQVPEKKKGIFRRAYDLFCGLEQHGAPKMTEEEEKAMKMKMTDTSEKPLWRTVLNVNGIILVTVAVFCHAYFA
# Method: Assay for Inhibitory Effects on Human SGLT1 Activity
# 1) Cloning and Construction of the Vector Expressing Human SGLT1
# The cDNA library was prepared for PCR amplification by reverse transcription from total RNA deprived from human small intestine (Ori gene) using oligo-dT as a primer. Using this cDNA library as a template, the DNA fragment coding 1 to 2005 bp of human SGLT1 (ACCESSION: M24847), which was reported by Hediger et al., was amplified by PCR method and inserted into the multi-cloning site of pcDNA3.1(−) (Invitrogen). The DNA sequence inserted was perfectly matched to the previously reported sequence.
# 2) Establishment of Cell Line Stably Expressing Human SGLT1
# The expression vector of human SGLT1 was digested by Sca I into a linear DNA. The linear DNA was transfected into CHO-K1 cells by means of lipofection (Effectene Transfection Reagent: QIAGEN). Neomycin resistant cell lines were selected by culture in the medium containing G418 (1 mg/mL, LIFE TECHNOLOGIES), and then the activity against the uptake of methyl-α-D-gluco-pyranoside was measured by the method described below. […] CS1-5-11D cells were cultured in the presence of G418 at 200 μg/mL.
# 3) Measurement of the Inhibitory Activity Against the Uptake of methyl-α-D-glucopyranoside (α-MG)
# CS1-5-11D cells were seeded into a 96-well culture plate at a density of 3×10^4 cells/well and cultured for 2 days, and were used in the uptake assay. A mixture of non-labeled (Sigma) and ^14C-labeled α-MG (Amersham Pharmcia Biotec) was added to the uptake buffer (pH 7.4; containing 140 mM sodium chloride, 2 mM potassium chloride, 1 mM calcium chloride, 1 mM magnesium chloride, 10 mM 2-[4-(2-hydroxyethyl)-1-piperazinyl]ethane sulfonic acid, and 5 mM tris(hydroxymethyl)aminomethane) at the final concentration of 1 mM. A test compound was dissolved in dimethyl sulfoxide, and then appropriately diluted with distilled water. The test compound solution was added to the uptake buffer containing 1 mM α-MG, and designated as a measurement buffer. For the control group, the measurement buffer without any test compound was prepared. For measuring the basal uptake, a basal uptake measurement buffer which contains 140 mM chorine chloride instead of sodium chloride was prepared. After removing the culture medium of CS1-5-11D cells, 180 μL of the pre-treatment buffer (the basal uptake buffer without α-MG) was added to each well and incubated at 37° C. for 10 minutes. After repeating the same treatment, the pre-treatment buffer was removed. To each well was added 75 μL of the measurement buffer or the basal uptake buffer was added and incubated at 37° C. for 1 hour. After removing the measurement buffer, cells were washed twice with 180 μL per well of the washing buffer (the basal uptake buffer containing 10 mM non-labeled α-MG). The cells were solubilized by 75 μL per well of 0.2 mol/L sodium hydroxide. The cell lysates were transferred into PicoPlates (Packard), and then added 150 μL of MicroScint-40 (Packard) and mixed. Radioactivity was measured by means of micro-scintillation counter TopCount (Packard). One hundred % was set to the difference between the uptake in the control group and the basal uptake, and the uptake of methyl α-D-gluco-pyranoside at each drug concentration were calculated.
structure (smiles),measurement,setting,value
"CC(C)c1[nH]nc(O[C@@H]2O[C@H](CO)[C@H](O)[C@H](O)[C@H]2O)c1Cc1ccc(CCCC(=O)NC(C)(C)C(=O)N2CCN(C)CC2)cc1 [Example 61, 3-(β-D-Galactopyranosyloxy)-5-isopropyl-4-{[4-(3-{1-[(4-methylpiperazin-1-yl)carbonyl]-1-(methyl)ethylcarbamoyl}-propyl)phenyl]methyl}-1H-pyrazole]",Plasma glucose concentration 0.5 h,diabetic rats; 0.5 hour after drug administration,136 ± 6 mg/dL
same,Plasma glucose concentration 1 h,diabetic rats; 1 hour after drug administration,172 ± 37 mg/dL
same,Plasma glucose concentration 0 h,diabetic rats; pretreatment (0 h),116 ± 6 mg/dL
same,IC50,human SGLT1,18 nM
